The source of these data is US20030073729A1, “Medicaments for diabetic complication and neuropathy, and uses thereof” (AJINOMOTO CO. INC, priority 2000, published 2003).

In test [1] the test system is GK rat. Put plainly: Total cholesterol concentration in blood plasma of GK rats. The format is in vivo. The settings on record: fasted 17 hours, 4, 14 and 23 weeks after start of administration, glibenclamide 1 mg/kg, nateglinide 50 mg/kg twice a day, FIG. 2. The protocol: In the same manners as those in the Example 1, the groups formation for the test animals, the feeding of the animals and the administration of medicinal compounds (drug) to be tested to the animals were performed. At one week before the start of the drug administration (the age of 13 weeks) for the animals, and at four weeks (the age of 18 weeks), fourteen weeks (the age of 28 weeks) and twenty-three weeks (the age of 37 weeks) each after the start of the drug administration, the blood samples were taken from the jugglar vein after fasting (abstinence from food) for 17 hours. The total cholesterol concentration in the blood plasma was measured by means of the cholesterol oxidase test method using the Fuji […] analyzer.

The subject of a further test is GK rats. Description: Triglyceride concentration in blood plasma after fat emulsion loading, GK rats. The settings on record: fat emulsion (Intralipos, 2 g/kg) load, crossover, nateglinide 50 mg/kg or voglibose 0.2 mg/kg orally just before loading. The format is in vivo, rat. How it is done: (§1) Using the postprandial hyper lipemiamodel rats (10rats) thus obtained, in a crossover method, an influence of the drug administered on a triglyceride concentration in blood plasma (a postprandial hyperlipemia- suppressing effect) was examined. That is, nateglinide (50 mg/kg) or voglibose (0.2 mg/kg), an alpha-glucosidase inhibitor as a control was administered orally, just before loading with the fat emulsion, and the blood samples were taken from a tail vein with time by four hours after the administration.
(§2) A triglyceride concentration in the blood plasma was measured by means of the Fuji Drichem analyzer.

The test system of test [2] is vWF concentration in the serum. Put plainly: vWF concentration in serum of GK rats (ELISA). Format: in vivo. The following applies: GK rat, 23 weeks after start of administration, nateglinide 50 mg/kg twice a day; relative to normal control group 100; control group 184.8±24.3. How it is done:
In the same manners as those in the Example 1, the feeding of the animals for the test animals and the administration of medicinal compounds (drug) to be tested to the animals were performed. At twenty-three (23) weeks after the start of the drug administration (the age of 37 weeks), the blood samples were taken from the postcaval vein. The vWF concentration in the serum was measured by means of the ELISA method using anti-human vWF antibody (made by DAKO Co.).
On the technique in general: In an ELISA, binding on a coated surface is turned into a signal by an enzyme label.

Test [3] concerns Na^+/K^+-ATPase activity in the sciatic nerve. Description: Na+/K+-ATPase activity in sciatic nerve of GK rats. The settings on record: GK rat, 23 weeks after start of oral administration, nateglinide 50 mg/kg twice a day; control group 87.6±9.8, normal control 110.5±7.7. The format is in vivo. How it is done: In the same manners as those in the Example 1, the group formation for the test animals, the feeding of the animals and the administration of medicinal compounds (drug) to be tested to the animals were performed. At twenty-three weeks after the start of the drug administration (the age of 37 weeks), the rats were killed and the sciatic nerves were excised. A Na^+/K^+-ATPase activity in the sciatic nerve was measured based on the method described in Green et al., Journal of Clinical Investigation, vol.72, 1058-1063 (1983).

Test [4] concerns GK rat. Description: Motor nerve conduction velocity (tail nerve) in GK rats. The format is in vivo. The settings on record: 23 weeks after start of oral administration twice a day, glibenclamide 1 mg/kg, nateglinide 50 mg/kg, control group 48.2±1.3, normal control 55.2±1.8. The protocol:
An animal test was conducted on a set of the following four groups, and nateglinide and glibenclamide were each suspended into 0.5% methyl cellulose (MC) to give a solution for administration.
GKrats( :male) as a spontaneous diabetic model and normal Wistar rats ( : male) were introduced at the age of 6 weeks.
From the age of 7 weeks, they were kept under a light control (dark term: 7:00 a.m. to 7:00 p.m.; light term: 7:00 p.m. to next morning 7:00) in a feeding limit condition, in which a feed was given twice a day, each only for 1 hour at an interval of 6 hours (9:00 a.m. to 10:00 a.m., and 3:00 p.m. to 4:00 p.m.).
Everyday from the age of 14 weeks, 0.5% MC, glibenclamide (1 mg/kg) or nateglinide (50 mg/kg) was forcibly administered orally just before each feeding twice a day (at 9:00 a.m. and 3:00 p.m.) at an interval of 6 hours.
Twenty-three weeks after the start of the drug administration (the age of 37 weeks), in order to examine an influence on diabetic complications, the motor nerve conduction velocity was measured according to the method described in Cameronetal., Diabetologia, Vol.39, p.1047-1054 (1996), using a tail nerve.

The next test concerns Zucker Fatty rat. Put plainly: Triglyceride concentration in blood plasma after fat emulsion loading, Zucker Fatty rat. The format is in vivo. The following applies: for area under the curve (AUC) of the triglyceride until four hours after the load: Zucker Fatty rat, fat emulsion load, nateglinide 50 mg/kg or voglibose 0.2 mg/kg orally. How it is done:
as §1, §2
The same examinations were also conducted with the use of a Zucker Fatty rat which is another hyperlipidemic animal.
As a result of fractional analysis of lipoprotein by means of anagarose gel electrophoresis, amarked increase of fractions in the origin area and pre β subfractions, which are thought to contain chylomicron, VLDL (very low density lipoprotein) and so on which are said to correlate with an angiopathy and an arteriosclerosis was observed.

Structures are written as SMILES.

Regarding `CC(C)[C@H]1CC[C@H](C(=O)N[C@H](Cc2ccccc2)C(=O)O)CC1` [nateglinide, (−)-N-(trans-4-isopropylcyclohexane-carbonyl)-D-phenylalanine], the “total cholesterol concentration in the blood plasma” value in the test with GK rat [1] is on record as “marked decrease”. In addition, the “increase of area under the curve (AUC) of the triglyceride during four hours after the loading” value with GK rats turned out to be 81 ± 22 mg·h/dL. Moreover, the “vWF concentration in the serum” value in test [2] worked out at 124.5±21.5%. For the same molecule, the “Na^+/K^+-ATPase activity in the sciatic nerve” value in test [3] is listed as 99.5±7.6 μmol ADP/g/hr. The “motor nerve conduction velocity” value in the test with GK rat [4] came out at 55.9±1.3 m/sec. Also, the “area under the curve (AUC) of the triglyceride until four hours after the load” value in the test on Zucker Fatty rat was 15 ± 69 mg·h/dL. The “increase of lipoprotein fractions in the origin area and pre β subfractions (agarose gel electrophoresis)” value in the test on Zucker Fatty rat (after fat emulsion load, fractions thought to contain chylomicron, VLDL) is listed as “suppressed”.

Turning to `OCC(CO)N[C@H]1C[C@](O)(CO)[C@@H](O)[C@H](O)[C@H]1O` [voglibose], in the test on GK rats, the “increase of area under the curve (AUC) of the triglyceride during four hours after the loading” value turned out to be 164 ± 17 mg·h/dL. Also, the “area under the curve (AUC) of the triglyceride until four hours after the load” value in the test with Zucker Fatty rat was determined as 501 ± 112 mg·h/dL.

On to `COc1ccc(Cl)cc1C(=O)NCCc1ccc(S(=O)(=O)NC(=O)NC2CCCCC2)cc1` [glibenclamide], for which the “total cholesterol concentration in the blood plasma” value in the test with GK rat [1] is “change in the cholesterol value was not observed”. In addition, the “motor nerve conduction velocity” value with GK rat [4] came to 52.3±0.9 m/sec.
